In brackets after ≈: the same amount, converted by molar mass. Several values for one entry are separate records, joined by “and”; a condition that tells them apart may be missing. Equal values may be shown once. *1 amine or outer side, *2 acyl side, *3 side chain or, on linkers, in order; H or OH if unused. Where a SMILES comes first, the peptide text is derived from it. Bridges are numbered along the chain shown (N, C = ends). [ ]: non-standard residue; d: D form. The star is where a group is joined. X1 = NC(=O)[C@@H](CS[*:2])C(=O)[*:1]; X2 = CC[C@H](C)[C@H](NO*)C(=O)O; Octanoyl = CCCCCCCC(=O)*; Dab = NCC[C@H](N)C(=O)O
Experiments:
Pseudomonas aeruginosa = experiment: Antimicrobial activity against Pseudomonas aeruginosa; type: functional, organism-based
Lipopolysaccharide (LPS) = experiment: Displacement of dansyl-PMB from LPS by isothermal titration calorimetry
Salmonella enterica = experiment: Antimicrobial activity against Salmonella enterica; type: functional
Escherichia coli = experiment: Antimicrobial activity against Escherichia coli; type: functional

Row | Structure (SMILES) | MIC (Pseudomonas aeruginosa) | IC50 (Lipopolysaccharide (LPS); read-out: IC50) [µM] | MIC (Salmonella enterica) | MIC (Escherichia coli) | IC50 (Lipopolysaccharide (LPS)) [µM] | Ka (Lipopolysaccharide (LPS))
1 | C[C@@H](O)[C@H](N)C(=O)N[C@@H](CCN)C(=O)N[C@H]1CCNC(=O)[C@H]([C@@H](C)O)NC(=O)[C@H](CCN)NC(=O)[C@H](CCN)NC(=O)[C@H](Cc2ccccc2)NC(=O)[C@@H](Cc2ccccc2)NC(=O)[C@H](CCN)NC1=O | ≥ 250 µg/mL | 5 | – | – | – | –
2 | C[C@@H]1NC(=O)[C@@H](Cc2ccccc2)NC(=O)[C@H](CCN)NC(=O)[C@@H](NC(=O)[C@H](CCN)NC(=O)[C@@H](N)[C@@H](C)O)CCNC(=O)[C@H]([C@@H](C)O)NC(=O)[C@H](CCN)NC(=O)[C@H](CCN)NC1=O | ≥ 250 µg/mL | 12 | – | – | – | –
3 | CC(C)C[C@@H]1NC(=O)[C@@H](Cc2ccc(O)cc2)NC(=O)[C@H](CCN)NC(=O)[C@@H](NC(=O)[C@H](CCN)NC(=O)[C@@H](N)[C@@H](C)O)CCNC(=O)[C@H]([C@@H](C)O)NC(=O)[C@H](CCN)NC(=O)[C@H](CCN)NC1=O | ≥ 500 µg/mL | 25 | – | – | – | –
4 | CC(C)C[C@@H]1NC(=O)[C@@H](Cc2c[nH]c3ccccc23)NC(=O)[C@H](CCN)NC(=O)[C@@H](NC(=O)[C@H](CCN)NC(=O)[C@@H](N)[C@@H](C)O)CCNC(=O)[C@H]([C@@H](C)O)NC(=O)[C@H](CCN)NC(=O)[C@H](CCN)NC1=O | ≥ 500 µg/mL | 4 | – | – | – | –
5 | CCCCCCCC(=O)N[C@@H](CCN)C(=O)N[C@H](C(=O)N[C@@H](CCN)C(=O)N[C@H]1CCNC(=O)[C@H]([C@@H](C)O)NC(=O)[C@H](CCN)NC(=O)[C@H](CCN)NC(=O)[C@H](CC(C)C)NC(=O)[C@@H](C)NC(=O)[C@H](CCN)NC1=O)[C@@H](C)O | 1 µM | – | 1 µM | 1 µM (≈ 1.11 µg/mL) | 6 | –
6 | CCCCCCCC(=O)N[C@@H](CCN)C(=O)N[C@H](C(=O)N[C@@H](CCN)C(=O)N[C@H]1CCNC(=O)[C@H]([C@@H](C)O)NC(=O)[C@H](CCN)NC(=O)[C@H](CCN)NC(=O)[C@H](C)NC(=O)[C@@H](Cc2ccccc2)NC(=O)[C@H](CCN)NC1=O)[C@@H](C)O | 1 µM | – | 1 µM | 1 µM (≈ 1.15 µg/mL) | 5 | –
7 | CCCCCCCC(=O)N[C@@H](CCN)C(=O)N[C@H](C(=O)N[C@@H](CCN)C(=O)N[C@H]1CCNC(=O)[C@H]([C@@H](C)O)NC(=O)[C@H](CCN)NC(=O)[C@H](CCNC(C)=O)NC(=O)[C@H](CC(C)C)NC(=O)[C@@H](Cc2ccccc2)NC(=O)[C@H](CCN)NC1=O)[C@@H](C)O | 2 µM | – | 4 µM | 2 µM (≈ 2.46 µg/mL) | 26 | –
8 | CCCCCCCC(=O)N[C@@H](CCN)C(=O)N[C@H](C(=O)N[C@@H](CCN)C(=O)N[C@H]1CCNC(=O)[C@H]([C@@H](C)O)NC(=O)[C@H](CCN)NC(=O)[C@H](CCN)NC(=O)[C@H](C)NC(=O)[C@@H](C)NC(=O)[C@H](CCN)NC1=O)[C@@H](C)O | 4 µM | – | 32 µM | 2 µM (≈ 2.14 µg/mL) | 8 | –
9 | CCCCCCCC(=O)N[C@@H](CCN)C(=O)N[C@H](C(=O)N[C@@H](CCN)C(=O)N[C@H]1CCNC(=O)[C@H]([C@@H](C)O)NC(=O)[C@H](CCN)NC(=O)[C@H](CCN)NC(=O)CNC(=O)[C@@H](Cc2ccccc2)NC(=O)[C@H](CCN)NC1=O)[C@@H](C)O | 2 µM | – | 2 µM | 1 µM (≈ 1.13 µg/mL) | 11 | –
10 | CCCCCCCC(=O)N[C@@H](CCN)C(=O)N[C@H](C(=O)N[C@@H](CCN)C(=O)N[C@H]1CCNC(=O)[C@H]([C@@H](C)O)NC(=O)[C@H](CCN)NC(=O)[C@H](CCN)NC(=O)[C@H](Cc2c[nH]c3ccccc23)NC(=O)[C@@H](Cc2ccccc2)NC(=O)[C@H](CCN)NC1=O)[C@@H](C)O | 2 µM | – | 2 µM | 2 µM (≈ 2.53 µg/mL) | 5 | –
11 | CCCCCCCC(=O)N[C@H]1CCNC(=O)[C@H]([C@@H](C)O)NC(=O)[C@H](CCN)NC(=O)[C@H](CCN)NC(=O)[C@H](CC(C)C)NC(=O)[C@@H](Cc2ccccc2)NC(=O)[C@H](CCN)NC1=O | 128 µM | – | 128 µM | 128 µM (≈ 114 µg/mL) | 30 | –
12 | CCCCCCCC(=O)N[C@@H](CCN)C(=O)N[C@H]1CCNC(=O)[C@H]([C@@H](C)O)NC(=O)[C@H](CCN)NC(=O)[C@H](CCN)NC(=O)[C@H](CC(C)C)NC(=O)[C@@H](Cc2ccccc2)NC(=O)[C@H](CCN)NC1=O | 8 µM | – | 16 µM | 16 µM (≈ 15.8 µg/mL) | 14 | –
13 | CCCCCCCC(=O)N[C@@H](CCN)C(=O)N[C@H](C(=O)N[C@@H](CCN)C(=O)N[C@H]1CCNC(=O)[C@H]([C@@H](C)O)NC(=O)[C@H](CCN)NC(=O)[C@H](CCN)NC(=O)[C@H](CC(C)C)NC(=O)[C@H](Cc2ccccc2)NC(=O)[C@H](CCN)NC1=O)[C@@H](C)O | 2 µM | – | 2 µM | 2 µM (≈ 2.38 µg/mL) | 10 | –
14 | CC(C)C[C@@H]1NC(=O)[C@H](Cc2ccccc2)NC(=O)[C@H](CCCCN)NC(=O)[C@@H](C(N)=O)CSSC[C@@H](C(N)=O)NC(=O)[C@H](CCCCN)NC(=O)[C@H](CCCCN)NC1=O (KFLKKC-NH2; linker N-6 via X1) | – | – | > 1000 µg/mL | – | – | 1.15 10^5/M
15 | CC(C)C[C@@H]1NC(=O)[C@H](Cc2ccccc2)NC(=O)[C@H](CCCCN)NC(=O)[C@@H](C(N)=O)CSSC[C@@H](C(=O)N[C@@H](CCCCN)C(=O)N[C@H](C(=O)NCC(=O)N[C@@H](CCCCN)C(=O)O)[C@@H](C)O)NC(=O)[C@H](CCCCN)NC(=O)[C@H](CCCCN)NC1=O (KFLKKCKTGK-OH; linker N-6 via X1) | – | – | > 1000 µg/mL | – | – | 0.56 10^7/M
16 | CC[C@H](C)[C@H](NOC(=O)[C@H](CCCCN)NC(=O)CNC(=O)[C@@H](NC(=O)[C@H](CCCCN)NC(=O)[C@@H]1CSSC[C@H](C(N)=O)C(=O)N[C@@H](CCCCN)C(=O)N[C@@H](Cc2ccccc2)C(=O)N[C@@H](CC(C)C)C(=O)N[C@@H](CCCCN)C(=O)N[C@@H](CCCCN)C(=O)N1)[C@@H](C)O)C(=O)O (KFLKKCKTGK-X2; linker N-6 via X1) | – | – | > 1000 µg/mL | – | – | 0.29 10^7/M
17 | CCCCCCCC(=O)N[C@@H](CCN)C(=O)N[C@H](C(=O)N[C@@H](CCN)C(=O)N[C@H]1CCNC(=O)[C@H]([C@@H](C)O)NC(=O)[C@H](CCN)NC(=O)[C@H](CCN)NC(=O)CNC(=O)CNC(=O)[C@H](CCN)NC1=O)[C@@H](C)O (Octanoyl-[Dab]T[Dab][Dab][Dab]GG[Dab][Dab]T; lactam 4-C) | ≥ 512 µM | – | ≥ 512 µM | 256 µM (≈ 267 µg/mL) | 20 | –
18 | CCCCCCCC(=O)N[C@@H](CCN)C(=O)N[C@H](C(=O)N[C@@H](CCN)C(=O)N[C@H]1CCNC(=O)[C@H]([C@@H](C)O)NC(=O)[C@H](CCN)NC(=O)[C@H](CCN)NC(=O)[C@H](CC(C)C)NC(=O)CNC(=O)[C@H](CCN)NC1=O)[C@@H](C)O (Octanoyl-[Dab]T[Dab][Dab][Dab]GL[Dab][Dab]T; lactam 4-C) | 1 µM | – | 16 µM | 2 µM (≈ 2.2 µg/mL) | 11 | –
19 | CCCCCCCC(=O)N[C@@H](CCN)C(=O)N[C@H](C(=O)N[C@@H](CCN)C(=O)N[C@H]1CCNC(=O)[C@H]([C@@H](C)O)NC(=O)[C@H](C)NC(=O)[C@H](CCN)NC(=O)[C@H](CC(C)C)NC(=O)[C@@H](Cc2ccccc2)NC(=O)[C@H](CCN)NC1=O)[C@@H](C)O (Octanoyl-[Dab]T[Dab][Dab][Dab][dF]L[Dab]AT; lactam 4-C) | 2 µM | – | 4 µM | 4 µM (≈ 4.64 µg/mL) | 19 | –
20 | CCCCCCCC(=O)N[C@@H](CCN)C(=O)N[C@H](C(=O)N[C@@H](CCN)C(=O)N[C@H]1CCNC(=O)[C@H](C)NC(=O)[C@H](CCN)NC(=O)[C@H](CCN)NC(=O)[C@H](CC(C)C)NC(=O)[C@@H](Cc2ccccc2)NC(=O)[C@H](CCN)NC1=O)[C@@H](C)O (Octanoyl-[Dab]T[Dab][Dab][Dab][dF]L[Dab][Dab]A; lactam 4-C) | 1 µM | – | 1 µM | 2 µM (≈ 2.32 µg/mL) | 5 | –
21 | CCCCCCCC(=O)N[C@@H](CCN)C(=O)N[C@H](C(=O)N[C@@H](CCN)C(=O)N[C@H]1CCNC(=O)[C@H]([C@@H](C)O)NC(=O)[C@H](CCN)NC(=O)[C@H](CCN)NC(=O)[C@H](CC(C)C)NC(=O)C(Cc2c[nH]c3ccccc23)NC(=O)[C@H](CCN)NC1=O)[C@@H](C)O (stereo in doubt) | 2 µM | – | 2 µM | 2 µM (≈ 2.46 µg/mL) | 6 | –
22 | CCCCCCCC(=O)N[C@H](C(=O)N[C@@H](CCN)C(=O)N[C@H]1CCNC(=O)[C@H]([C@@H](C)O)NC(=O)[C@H](CCN)NC(=O)[C@H](CCN)NC(=O)[C@H](CC(C)C)NC(=O)[C@@H](Cc2ccccc2)NC(=O)[C@H](CCN)NC1=O)[C@@H](C)O (stereo in doubt; 231) [Octanoyl Polymixin B nonapeptide] | 2 µM | – | 2 µM | 2 µM (≈ 2.18 µg/mL) | 12 | –
23 | CC(=O)N[C@@H](CCN)C(=O)N[C@H](C(=O)N[C@@H](CCN)C(=O)N[C@H]1CCNC(=O)[C@H]([C@@H](C)O)NC(=O)[C@H](CCN)NC(=O)[C@H](CCN)NC(=O)[C@H](CC(C)C)NC(=O)[C@@H](Cc2ccccc2)NC(=O)[C@H](CCN)NC1=O)[C@@H](C)O [DEACYL POLYMYXIN B] (Ac-[Dab]T[Dab][Dab][Dab][dF]L[Dab][Dab]T; lactam 4-C) | 4 µM | – | 16 µM | 8 µM and 30 µg/mL | 13 | –
